Assay results: patent US7749491B2, “Compounds and methods to enhance rAAV transduction” (priority 2003, dated 2010)

Legend:
[1] = tested on: polarized human bronchial epithelial cells; conditions: hypotonic EGTA solution; cited from earlier work
A549 cells = experiment: AV2Luc / AV2/5Luc transduction of A549 cells with LLnL / doxorubicin; type: cell-based, human
ferret fibroblast = experiment: rAAV transduction of ferret fibroblasts with LLnL / doxorubicin; type: cell-based; conditions: for concentration at which transduction is enhanced: ferret fibroblast
Method: (§1) C. To determine whether combinations of agents that enhance rAAV transduction efficiency have synergistic or additive effects when used in combination, cells were contacted with the proteosome modulator, doxorubicin, and the proteosome inhibitor Z-LLL or LLnL. Different AAV vectors were tested, including splicing vectors and pseudotyped rAAV. Viral stocks utilized were as follows: Av2RSVluc, 5×10^8 particle/μl; Av2RSVlucCap5 (also referred to as Av2/5 CMVLuc), 2×10^9 particle/μl; Av2CMVluc, 1.3×10^9 particle/μl; and Av2CMVlucCap5, 1.1×10^9 particle/μl. Combinations of agents were compared to the agents used alone to determine the efficiency of transduction. LLnL was used at 40, 200 or 400 μM, Z-LLL at 4 μM and doxorubicin at 0.5 or 1 μM when employed alone. When a combination of LLnL and doxorubicin was used, LLnL was used at 4, 10, 20, 40, 200 or 400 μM and doxorubicin at 1 or 5 μM. The apical surface of polarized airway epithelia, HeLa cells or ferret fibroblast was contacted with the agents and rAAV (5×10^9 particles per well).

[2] = tested on: polarized human airway epithelia; experiment: Luciferase rAAV2 / rAAV5-capsid transduction of polarized human airway epithelia; type: cell-based; conditions: for enhancement of transduction from the apical surface: LLnL 40 μM and/or Dox 5 μM at the time of infection; for concentration at which transduction is enhanced: polarized airway epithelial cells
[3] = tested on: polarized human bronchial epithelial cells; type: cell-based
Method: Primary culture of human bronchial epithelia and reagents utilized. Primary human airway epithelial cells were collected by enzymatic digestion of bronchial samples from lung transplants, as previously described (Kondo et al., 1991; Zabner et al., 1996). Isolated primary airway cells were seeded at a density of 5×10^5 cells/cm^2 onto collagen-coated Millicell-HA culture inserts (Millipore Corp., Bedford, Mass.). Primary cultures were grown at the air-liquid interface for more than 2 weeks, by which time differentiation into a mucociliary epithelium occurs. The culture medium, used to feed only the basolateral side of the cells, contained 49% DMEM, 49% Ham's F12 and 2% Ultraser G (BioSepra, Cedex, France). Dimethyl Sulphoxide (DMSO), camptothecin (Camp), etoposide (Etop), aphidicolin (Aphi), hydroxyurea (HU) and genistein (Geni) were purchased from Sigma (St. Louis, Mo.). Tripeptidyl aldehyde proteasome inhibitors N-Acetyl-L-Leucyl-L-Leucyl-Norleucine (LLnL) and benzyloxycarbonyl-L-leucyl-L-leucyl-L-leucinal (Z-LLL) were purchased from Calbiochem-Novabiochem Corporation (La Jolla, Calif.). Ubiquitin ligase (E3) inhibitors were obtained from Bachem Bioscience Inc. (King of Prussia, Pa.). Anti-AAV capsid monoclonal antibody (Anti-VP1, 2 and 3) was purchased from American Research Products (Belmont, Mass.) and anti-ubiquitin antibody was purchased from Santa Cruz Biotechnology Inc. (Santa Cruz, Calif.).
Transduction of polarized airway epithelial cells and primary human fibroblasts. rAAV infection of fully differentiated bronchial cells was performed as described in Duan et al. (1998). For infections from the apical surface of the airway cells, 5 μl rAAV was mixed with 50 μl of culture media and applied directly onto the apical compartment of Millicell inserts (MOI=10,000 particles/cell). During apical infection, the basolateral side of the Millicell was continuously bathed in culture media. Gene transfer to the basal side was performed by inverting Millicell inserts and applying viral vector to the bottom of the supporting filter membrane in a 50 μl volume for 2 hours. Subsequently, Millicell inserts were returned to the upright position, in the continued presence of the original viral inoculum plus an additional 450 μl of media. For both apical and basolateral infections, rAAV containing media was removed after 24 hours and replaced with either fresh culture media (for the basal side) or exposed to air (for the apical side). To test the effect of different agents on the efficiency of AAV transduction in polarized airway cells, 1 μl of each solution was mixed with AAV prior to infection of airway epithelia. Agents were usually presented during the 24 hours AAV infection period unless indicated otherwise. Most of the agents were dissolved in DMSO except for hydroxyurea (dissolved in phosphate buffered saline), H-Leu-Ala-OH (dissolved in 0.9% glacial acetic acid) and H-His-Ala-OH (dissolved in 50% methanol). The working concentrations of the agents were as follows: 0.1 μM camptothecin, 10 μM etoposide, 5 μg/ml aphidicolin, 40 mM hydroxyurea, 50 μM genistein, 40 μM LLnL and 4 μM Z-LLL. When the ubiquitin ligase (E3) inhibitors (H-Leu-Ala-OH and H-His-Ala-OH) were used, airway cells were pretreated with a combination of both inhibitors at a final concentration of 2 mM for 60 minutes prior to infection, followed by the continued presence of inhibitor (0.2 mM) during the entire 24 hours infection period from the basolateral surface. Studies involving EGTA treatment were performed by transiently treating the apical membrane of polarized airway epithelia with 3 mM EGTA in water for 10 minutes (Duan et al., 1998). Following hypotonic EGTA treatment, cultures were washed twice with culture medium and infected with rAAV in the presence or absence of 40 μM LLnL. Human primary fibroblast cells (P4) were maintained in 10% fetal bovine serum (FBS), 1% penicillin and streptomycin, and 89% DMEM. […]

HeLa cells [4] = experiment: Luciferase rAAV transduction of HeLa cells with LLnL / doxorubicin; type: cell-based
Method: as §1

IB3 cells = experiment: AV2Luc / AV2/5Luc transduction and nuclear uptake in IB3 cells; type: cell-based, human; conditions: rAAV2-infected IB3 cells; 40 μM LLnL or 1 μM Dox; 24 hours
Method: LLnL and Z-LLL are two tripeptidyl aldehydes shown to inhibit calpains, cathepsins, cysteine proteases as well as the chymotrypsin-like protease activity of proteasomes (Wagner et al., 2002; Donkor, 2000; Sasaki et al., 1990). […] Both classes of proteasome inhibitors bind tightly to the proteasome complex. Dose response curves for these two proteasome-modulating agents were evaluated on IB3, A549, Hela, and primary fibroblasts. The responses were consistent for a number of cell lines and for three different promoters driving luciferase expression. For one set, CMV-driven luciferase constructs with an AAV2-based genome were employed that were packaged into AV2 or AV5 capsids. Cells were infected at various doses of AV2Luc and AV2/5Luc (MOIs 100 to 1000 particles/cell). At the time of infection, cells were treated with various concentrations of LLnL or Doxorubicin and gene expression was assayed at 24 hours post-infection. The effect of proteasome inhibitors on nuclear uptake of virus was evaluated using a previously-described protocol for fractionating viral DNA in the cytoplasm and nucleus (Xiao et al., 2002). Viral DNA content in the cytoplasmic and nuclear fractions was then evaluated by slot blot hybridization against a Luciferase DNA probe.

[5] = Toxicity of proteasome inhibitors in mice; type: in vivo, mouse; conditions: 10, 100, and 1000 fold higher effective doses; intra-tracheal and systemic (IV) delivery
Method: Long-term enhancement of rAAV transduction by proteasome inhibitor in vivo. To evaluate the potential utility of proteasome inhibitors for in vivo gene therapy, both the toxicity and efficacy of these agents for in vivo rAAV mediated gene transfer in the mouse lung was tested. To assess the toxicity of these proteasome inhibitors in mice, 10, 100, and 1000 fold higher effective doses of LLnL or Z-LLL were administered than used to induce gene transfer in polarized airway cells, using both intra-tracheal and systemic (IV) delivery. No toxicity was indicated by histologic evaluation of the lung and liver or was evidenced by the death of animals. To investigate whether these proteasome inhibitors could improve rAAV transduction in vivo, AV.LacZ (5×10^10 particles) was delivered either alone or in the presence of 400 μM Z-LLL by intranasal administration. Mouse lungs were harvested at 3, 10 and 150 days post-infection to evaluate short and long term effects. […] Targeted transgene expression was predominantly confined to the conducting airways, rather than in the parenchyma. Alveolar cells were rarely transduced. […] The range of transgene expression in distal and proximal airways was 0 to 4% and 5 to 18%, respectively.

[6] = tested on: primary fetal fibroblasts; experiment: rAAV transduction of primary fetal fibroblasts with LLnL, Dox or both; type: cell-based; conditions: LLnL by itself
Method: Hela, A549, IB3, and primary fetal fibroblasts were evaluated for AV2Luc and AV2/5Luc transduction in the presence of LLnL, Dox, or LLnL+Dox at various concentrations. The data shown is from Hela and A549 cells at the most optimal dose combination that induces rAV2Luc transduction to a greater extent than each compound alone.

HeLa cells [7] = experiment: AAV2 FLAG-Luc transduction of HeLa cells (luciferase screen of agents); type: cell-based
Description: A. To screen for agents that enhance rAAV transduction, any number of cells can be used. A range of concentrations of the agent to be tested can be determined based on, for instance desirable profiles of the agent, desirable toxicity profiles of the agent and/or concentration of the agents employed in vivo. The usefulness of the cell type chosen for the screen can be confirmed by testing compounds, e.g., proteosome inhibitors described in Example 1 such as LLnL and ZLL which are known to increase rAAV transduction. For example, a AAV2 FLAG-Luc vector was employed to transduce HeLa, ferret fibroblasts, IB3 and Huh (liver) cells in the presence or absence of the proteosome inhibitor MG132. MG132 was confirmed to enhance AAV transduction in all cell types tested: HeLa cell transduction was enhanced about 500-fold at 80 μM, and 200-fold at 40 μM, MG132; ferret fibroblast cell transduction was enhanced about 200-fold at 20 μM, and 17-fold at 4 μM, MG132; IB3-1 cell transduction was enhanced about 30 to 70-fold at 20 to 80 μM MG132; and Huh-7 cell transduction was enhanced about 15-fold at 20 to 80 μM MG132. There was no difference in rAAV transduction efficiency in HeLa cells when either DMSO or ETOH was used as a vehicle for MG132. B. HeLa cells were selected to screen for additional agents that enhance rAAV transduction, although any cell strain or line; or primary cells, may be employed. […] The range of concentrations of the agents to be tested were selected based on solubility profiles, toxicity profiles and/or concentrations previously employed in vivo.
HeLa cells were infected for 2 hours with an MOI of 100 rAAV in the presence of agents, e.g., ritonavir (Norvir) (1, 10 and 100 μM), cyclosporin A (2.5, 25 and 250 μg/ml), epoxomicin (1, 10 and 50 μM), alcacinomycin A (5, 50 or 500 μM), chymostatin (1, 10 and 100 μM), bestatin (1, 10 and 100 μM), doxorubicin (adriamycin) (0.1, 1 and 10 μM), camptothecin (camptosar) (1, 10 and 100 μM), eicosapentanoic acid (1, 10 and 100 μM), tannic acid (2, 20, 200 and 2000 μM), simvastatin, prodrug (2, 20 and 200 μM), cisplatin (0.2, 2 and 20 μg/mL), and chloroquine (4, 40 and 400 μM). Forty-eight hours after infection, cells were harvested for analysis. rAAV transduction was measured by removing the media from the cell cultures, adding 100 μL reporter lysis buffer (RLB) and freezing. The supernatant was thawed and transferred to microfuge tubes, freeze thawed an additional 2 times, clarified by centrifugation for 10 minutes and then analyzed for reporter gene expression on the luminometer. Protein was determined by Bradford analysis and results were expressed as relative light units per mg protein (RLU/mg).
Based on results with doxorubicin, a small number of FDA approved anthracyclines were tested for their relative in vitro and in vivo activities on AAV transduction. HeLa cells were infected with 100 ppc AAV2FLAG-Luc for 2 hours in the presence of different anthracyclines, e.g., doxorubicin, daunarubicin (Cerubidine), epirubicin (Ellence™), and idarubicin (Idamycin®), and cells harvested 48 hours later. The anthracyclines were pharmaceutical grade, and prepared according to the manufacturer's instructions. Prior to use, the agents were diluted in sterile water to an equal mass, e.g., 0.6 μg/mL, 3 μg/mL and 6 μg/mL. For example, 3 μg/mL idamycin increased luciferase expression by over 5000-fold while doxorubin increased luciferase expression by 58-fold. Generally, the potency was as follows: idarubicin>daunarubicin>epirubicin>doxorubicin.

| Compound | increase of AAV transduction from the apical surface [1] [fold] | concentration at which transduction is enhanced (A549 cells) [µM] | concentration at which transduction is enhanced (ferret fibroblast) [µM] | enhancement of transduction from the apical surface [2] [fold] | polarity of enhancement of AV2Luc and AV2/5Luc transduction ([2]; LLnL 40 μM, 5 and 14 days) | effect on AV2.RSVluc transduction ([2]; apical and basolateral infection) | concentration at which transduction is enhanced [2] [µM] | increase of AV2.RSVlucCap5 transduction ([2]; virus applied to the apical surface) [fold] | time of peak of augmentation in AAV transduction, mucosal co-administration ([3]; LLnL and rAAV to the mucosal surface) [days] | augmentation in transgene expression ([3]; applied to the serosal surface along with rAAV, 2 days post infection, LLnL 40 μM) | toxicity to cells on continual administration ([3]; continual administration, transgene expression ablated by 10 days) | time of transient peak in gene expression, serosal infection ([3]; rAAV from the serosal surface in the presence of LLnL) [h] | concentration at which transduction is enhanced (HeLa cells [4]) [µM] | fraction of viral DNA in the nuclear compartment (IB3 cells) | toxicity (histologic evaluation of lung and liver, death of animals) [5] | induction of transduction [6] [fold] | increase of luciferase expression (HeLa cells [7]; 3 μg/mL, 100 ppc AAV2FLAG-Luc 2 hours, harvested 48 hours) [fold] | outcome in cell line screening (HeLa cells [7]; HeLa screen) | enhancement of transduction with lacZ splicing vectors (ferret fibroblast; ferret fibroblasts infected with lacZ splicing vectors) |
| --- | --- | --- | --- | --- | --- | --- | --- | --- | --- | --- | --- | --- | --- | --- | --- | --- | --- | --- | --- |
| O=C(O)CN(CCOCCOCCN(CC(=O)O)CC(=O)O)CC(=O)O [EGTA] | 7 to 10 |  |  |  |  |  |  |  |  |  |  |  |  |  |  |  |  |  |  |
| N-acetyl-L-leucinyl-L-leucinal-L-norleucinal [LLnL] |  | 200 to 400 | 40 | 10 | only apical transduction for both AAV serotypes was enhanced | augments AV2.RSVluc transduction from the apical and basolateral surfaces | 40 | 12 | 22 | greater than 200 fold | toxic to cells | 72 | 40 | significantly increased the fraction of viral DNA in the nuclear compartment | No toxicity | 10 |  |  |  |
| COc1cccc2c1C(=O)c1c(O)c3c(c(O)c1C2=O)C[C@@](O)(C(=O)CO)C[C@@H]3O[C@H]1C[C@H](N)[C@H](O)[C@H](C)O1 [doxorubicin] |  | 5 | 1 | 100 |  |  | 5 |  |  |  |  |  | 1 | significantly increased the fraction of viral DNA in the nuclear compartment |  |  | 58 | tested positive | about 100 fold |
